Laboratory results as given in PMC7782499, “Progerinin, an optimized progerin-lamin A binding inhibitor, ameliorates premature senescence phenotypes of Hutchinson-Gilford progeria syndrome” (Communications Biology, 2021).
Several values for one entry are separate records, joined by “and”; a condition that tells them apart may be missing. Equal values may be shown once.

System: normal fibroblasts and HGPS cells
Experiment: Long-term treatment cell viability (MTT assay) in normal fibroblasts and HGPS cells
Format: cell-based
Procedure: To determine the cellular viability, cells were treated with lonafarnib or SLC-D011 for 2 weeks. For MTT assay, cells were incubated with 0.5 mg/ml of 3-(4,5-dimethythiazol-2-yl)-2,5-diphenyl tetrazolium bromide (MTT) solution for 6 hr at 37 °C. After removing MTT solution, the precipitated materials were dissolved in […] DMSO and quantified by measuring the absorbance at 540 nm.
Fig. S12. […] A. SLC-D011, compar ed to lonafarnib, reduces exogenous progerin expression in HEK293 cells. B. Long- t e r m treatment (treated with 2μM ever y ot her day for 2 weeks) with lonafarnib or SLC-D011 was performed for normal fibroblasts and HGPS cells. […]
to determine the cellular viability after treatment with lonafarnib or SLC-D011 (n = 3 independent experiment; two-tailed Student’s t -test), **p < 0.001, *p < 0.05, N.S: not significant. […]

Compound	Cell viability (AG03198, Ave) [ratio]	Cell viability (AG03198, individual replicate)	Cell viability (AG11513, Ave) [ratio]	Cell viability (AG11513, individual replicate)	Cell viability (N9, Ave) [ratio]	Cell viability (N9, individual replicate)	Cell death on long-term treatment (2μM every other day for 2 weeks)
CC1(C)Oc2cc3oc(=O)ccc3cc2C[C@@H]1OC/C=C/c1ccccc1 [SLC-D011]	1.64	1.6383 ratio and 1.687 ratio and 1.593 ratio	1.362	1.362 ratio and 1.373 ratio and 1.352 ratio	2.552	2.559 ratio and 2.546 ratio and 2.551 ratio	
NC(=O)N1CCC(CC(=O)N2CCC([C@H]3c4ncc(Br)cc4CCc4cc(Cl)cc(Br)c43)CC2)CC1 [lonafarnib, reference compound]	0.5027	0.6483 ratio and 0.3112 ratio and 0.5484 ratio	0.692	0.6982 ratio and 0.6988 ratio and 0.6791 ratio	1.642	1.689 ratio and 1.546 ratio and 1.691 ratio	induced cell death in both normal fibroblasts and HGPS cells
